Test results taken from patent US9376408B2, “Therapeutic thiazolidinone compounds” (Merck Sharp & Dohme Corp., priority 2012, dated 2016).
Like-named read-outs stand apart in the source and are kept apart here.

Experiments:
[1] = molecular target: T1, endogenous CETP from serum (Homo sapiens, UniProt P11597); assay: RTA assay in 95% human serum (CETP-catalyzed CE and TG transfer, endogenous CETP from serum); type: biochemical
T1 construct: yielding a concentration of approximately 15 nM endogenous CETP in the assay; from tissue; host or cells: human serum
T1 sequence (P11597 18-493): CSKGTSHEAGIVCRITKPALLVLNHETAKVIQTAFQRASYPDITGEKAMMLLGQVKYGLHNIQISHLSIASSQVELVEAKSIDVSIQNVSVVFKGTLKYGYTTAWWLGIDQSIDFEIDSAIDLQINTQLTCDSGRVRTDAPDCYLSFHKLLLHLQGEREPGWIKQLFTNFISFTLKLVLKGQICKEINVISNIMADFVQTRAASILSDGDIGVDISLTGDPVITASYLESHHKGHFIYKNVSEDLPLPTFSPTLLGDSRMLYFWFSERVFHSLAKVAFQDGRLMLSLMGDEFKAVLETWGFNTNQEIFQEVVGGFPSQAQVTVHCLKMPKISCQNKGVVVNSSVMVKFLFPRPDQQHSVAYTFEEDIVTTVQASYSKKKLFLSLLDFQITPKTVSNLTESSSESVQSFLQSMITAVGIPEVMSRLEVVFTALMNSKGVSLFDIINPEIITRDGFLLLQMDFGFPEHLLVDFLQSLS
Protocol: In Vitro Radioactive Assays of CETP-Catalyzed CE and TG Transfer (RTA Assay)
Reagents and sources are: [3H] cholesteryl oleate (GE #TRK.886), [3H] Triolein (Perkin-Elmer NET-431), Butylated hydroxyl toluene (Aldrich, #D4740-4), DOPC (Sigma, # P6354), Sodium Bromide (Fisher scientific #S255-500), PEG 8000 (Fisher, #BP233-1), and human HDL (Intracel Corp #RP-036).
An in vitro assay for determining IC50's to identify compounds that inhibit CETP transfer activity is performed based on a modification of a published method (Morton and Zilversmit, (1981) A plasma inhibitor of triglyceride and cholesteryl ester transfer activities, J. Biol. Chem. 256(23), 11992-11995). The ability of inhibitors to alter CETP activity is performed using two different assays: one using recombinant CETP and one using an endogenous plasma source of CETP. Both assays measure the transfer of [3H] cholesteryl oleate or [3H] triolein from exogenous LDL to HDL.
Radiolabeled donor particles are generated by first combining 100 μl of 200 μM butylated hydroxyl toluene in CHCl3, 216 μL of 21.57 mM DOPC in EtOH, and either 500 μCi [3H]-triolein (Perkin Elmer #NET-431) or 500 μCi [3H]-cholesteryl oleate (GE #TRK886) in a glass tube. Reagents are mixed, dried under nitrogen, and then resuspended in 2 mL of 50 mM Tris, 27 μM EDTA at pH 7.4. After a brief vortex, the solution is sonicated until clear and mixed with 20 mL of fresh human serum. The mixture is incubated overnight at 37° C. The [3H] labeled LDL substrate is separated at 1.063 g/ml density by sequential ultracentrifugal flotation in NaBr according to the method of Havel, Eder, et al., 1955, and Chapman, Goldstein, et al., 1981. Once isolated the particles are dialyzed 3× in CETP buffer (50 mM Tris, pH 7.4, 100 mM NaCl, 1 mM EDTA). Human HDL is purchased from Intracel and used as the acceptor particles.
Transfer assays are performed in a 96-well v-bottom polypropylene plate. For the RTA using recombinant CETP (2% RTA), an assay cocktail is prepared with the final concentrations 128 μg/mL HDL, 20 nM rCETP, 2% human serum, and 1×CETP buffer. 1 μL of each test compound diluted in DMSO is added to 47 μL of assay cocktail per well and incubated at 37° C. for 1 hour. To initiate the transfer reaction, 2 μL radiolabeled LDL is added. After an additional 60 min of incubation at 37° C., the transfer action is terminated by precipitation of LDL with an equal volume of 20% W/V PEG 8000. The plates are centrifuged at 2000 rpm for 30 minutes at 4° C. A 40 μL aliquot of the HDL-containing supernatant is transferred to a Packard Optiplate™ with 200 μL of MicroScint™ 20. After mixing, plates are counted by liquid scintillation. Counts present in the supernatant for blanks (wells containing only HDL acceptor, CETP buffer and DMSO) are subtracted from those containing test compounds and used to correct for non-specific transfer.
For the transfer assay using endogenous CETP from serum (95% RTA), the same procedure is used except that human serum is added such that a final concentration of serum of 95% of the total assay volume is achieved, yielding a concentration of approximately 15 nM endogenous CETP in the assay. This is then combined with HDL and CETP buffer and the reaction proceeds as above and is terminated as described.
Comparison of the counts of samples with inhibitors to an uninhibited (DMSO only) positive control yield a percent inhibition. A plot of percent inhibition vs. log of inhibitor concentration, fit to a Sigmoidal 4 parameter equation is used to calculate IC50.
Starting materials are commercially available or are made using known procedures or as shown below. The examples may be synthesized using the general schemes provided below. Synthetic intermediates for making the compounds are made as described below. The data reported for the examples below were generally obtained using the RTA assay in 95% human serum. […]

[2] = patients on anacetrapib plus baseline statin compared with patients treated with just a statin; cited from earlier work

Structure (SMILES) | IC50 ([1]; read-out: IC50) [nM] | further results
COc1ccc(-c2ccc(C(=O)O)cc2C)cc1-c1ccc(C(F)(F)F)cc1CN1C(=O)S[C@H](c2cc(C(F)(F)F)cc(C(F)(F)F)c2)[C@@H]1C [Example 1, 2″-(((4S,5R)-5-(3,5-bis(trifluoromethyl)phenyl)-4-methyl-2-oxothiazolidin-3-yl)methyl)-4′-methoxy-2-methyl-4″-(trifluoromethyl)-[1,1′:3′,1″-terphenyl]-4-carboxylic acid] |  | IC50 ([1]; read-out: RTA (95% HS)): 62 nM
COc1ccc(-c2ccc(C(=O)O)cc2C)cc1-c1ccc(C(F)(F)F)nc1CN1C(=O)S[C@H](c2cc(C(F)(F)F)cc(C(F)(F)F)c2)[C@@H]1C [Example 2, 3′-[2-({(4S,5R)-5-[3,5-bis(trifluoromethyl)phenyl]-4-methyl-2-oxo-1,3-thiazolidin-3-yl}methyl)-6-(trifluoromethyl)pyridin-3-yl]-4′-methoxy-2-methylbiphenyl-4-carboxylic acid] | 39 | 
COc1ncc(-c2ccc(C(=O)O)cc2C)cc1-c1ccc(C(F)(F)F)nc1CN1C(=O)S[C@H](c2cc(C(F)(F)F)cc(C(F)(F)F)c2)[C@@H]1C [Example 3, 4-[2′-({(4S,5R)-5-[3,5-bis(trifluoromethyl)phenyl]-4-methyl-2-oxo 1,3-thiazolidin-3-yl}methyl)-2-methoxy-6′-(trifluoromethyl)-3,3′-bipyridin-5-yl]-3-methylbenzoic acid] | 106 | 
COc1ccc(CCC(=O)O)cc1-c1ccc(C(F)(F)F)nc1CN1C(=O)S[C@H](c2cc(C(F)(F)F)cc(C(F)(F)F)c2)[C@@H]1C [Example 4, 3-{3-[2-({(4S,5R)-5-[3,5-bis(trifluoromethyl)phenyl]-4-methyl-2-oxo-1,3-thiazolidin-3-yl}methyl)-6-(trifluoromethyl)pyridin-3-yl]-4-methoxyphenyl} propanoic acid] | 300 | 
COc1ncc(-c2c(C)cc(C(=O)O)cc2C)cc1-c1ccc(C(F)(F)F)nc1CN1C(=O)S[C@H](c2cc(C(F)(F)F)cc(C(F)(F)F)c2)[C@@H]1C [Example 5, 4-[2′-({(4S,5R)-5-[3,5-bis(trifluoromethyl)phenyl]-4-methyl-2-oxo-1,3-thiazolidin-3-yl}methyl)-2-methoxy-6′-(trifluoromethyl)-3,3′-bipyridin-5-yl]-3,5-dimethylbenzoic acid] | 25 | 
COc1ccc([C@H]2CC[C@H](C(=O)O)CC2)cc1-c1ccc(C(F)(F)F)nc1CN1C(=O)S[C@H](c2cc(C(F)(F)F)cc(C(F)(F)F)c2)[C@@H]1C [Example 6, trans-4-{3-[2-({(4S,5R)-5-[3,5-bis(trifluoromethyl)phenyl]-4-methyl-2-oxo-1,3-thiazolidin-3-yl}methyl)-6-(trifluoromethyl)pyridin-3-yl]-4-methoxyphenyl} cyclohexanecarboxylic acid] | 257 | 
COc1ncc(-c2ccc(C(=O)O)cc2C)cc1-c1ccc(C(F)(F)F)cc1CN1C(=O)S[C@H](c2cc(C(F)(F)F)cc(C(F)(F)F)c2)[C@@H]1C [Example 7, 4-{5-[2-({(4S,5R)-5-[3,5-bis(trifluoromethyl)phenyl]-4-methyl-2-oxo-1,3-thiazolidin-3-yl}methyl)-4-(trifluoromethyl)phenyl]-6-methoxypyridin-3-yl}-3-methylbenzoic acid] | 117 | 
COc1cc(F)c(C(C)C)cc1-c1ccc(C(F)(F)F)cc1CN1C(=O)O[C@H](c2cc(C(F)(F)F)cc(C(F)(F)F)c2)[C@@H]1C [anacetrapib] |  | decrease of LDL-C [2]: 40%; increase of HDL-C [2]: 138%
